The text below walks through data of patent US12084709B2, “Screening method” (Mars, Incorporated, priority 2018, dated 2024).

The experiment has as its system Porphyromonas macacae JN713359. Kind of experiment: mBB fluorescent C-S lyase / VSC production method with whole bacteria. The class given is cell-based. The note with it: 0.12% CHX treatment; relative to control. On the procedure: The C-S lyase activity was measured in order to quantitate VSC production by the bacteria. This was conducted by using monobromobiname, a fluorescent probe for thiol. The bacteria were washed and resuspended in Tris buffer (pH 8.5) at OD=1.0. The 250 μL reaction mix contained 4 mM benzylcysteine, 100 μM monobromobimane, 10 μM pyridoxal 5′-phosphate, 50 μL of the bacteria suspension and was made up to 250 μL with tris buffer (pH 8.5). The mix was incubated anaerobically for 45 minutes at 37° C. The C-S lyase activities were determined based on fluorescence at 490 nm (em) upon excitation at 385 nm (ex). All measurements were performed in biological duplicate with each repeated in technical triplicates, creating total of 6 data points per strain. Blank measurements (containing buffer instead of crude extract) were used to correct the values derived from the substrate. The standard curve was measured using Benzyl mercaptan at 8-128 μM. The protein concentration of the bacteria suspension was determined by means of a commercially available BCA kit in accordance with the manufacturer's method. The specific C-S lyase activity was calculated by dividing the increase in fluorescence equivalent to Benzyl mercaptan concentration by the total protein content of the suspension in mg and expressed as unit which was defined as “nM Benzyl mercaptan release/μg protein/minute”. […]

Take `[H]/N=C(\N/C(=N/[H])NCCCCCCNC(=N)NC(=N)Nc1ccc(Cl)cc1)Nc1ccc(Cl)cc1` [CHX, Chlorhexidine, reference compound]: the “quantity of VSC produced as the control” value amounted to 25%.
